Results as given in the supplement of paper PMC10307832.

Key:
Experiment in all cases: relative viability (nuclei count vs DMSO), 5 days (fraction); higher = more cells survive
PAC-1 + Foretinib = compound: C=CCc1cccc(/C=N/NC(=O)CN2CCN(Cc3ccccc3)CC2)c1O [PAC-1] + COc1cc2c(Oc3ccc(NC(=O)C4(C(=O)Nc5ccc(F)cc5)CC4)cc3F)ccnc2cc1OCCCN1CCOCC1 [Foretinib] (partner 0.25 µM)
Method in brief: (§1)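 One day after seeding in 1536-well plates, lung cancer cell lines were dosed by pin tool. Dosing was either single-drug or a fixed anchor-drug dose plus five library-drug doses (not always all listed) in √10 steps. After 5 days, nuclei were stained in one fix-and-stain step and counted on 4× images, and relative viability is the nuclei count of treated wells over that of vehicle wells, given as the median of duplicate plates.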

PAC-1 + OSI-027 = compound: C=CCc1cccc(/C=N/NC(=O)CN2CCN(Cc3ccccc3)CC2)c1O [PAC-1] + COc1cccc2cc(-c3nc([C@H]4CC[C@H](C(=O)O)CC4)n4ncnc(N)c34)[nH]c12 [OSI-027] (partner 0.5 µM)
Method in brief: as §1

PAC-1 + Alpelisib = compound: C=CCc1cccc(/C=N/NC(=O)CN2CCN(Cc3ccccc3)CC2)c1O [PAC-1] + Cc1nc(NC(=O)N2CCC[C@H]2C(N)=O)sc1-c1ccnc(C(C)(C)C(F)(F)F)c1 [Alpelisib] (partner 2 µM)
Method in brief: as §1

PAC-1 + AZD7762 = compound: C=CCc1cccc(/C=N/NC(=O)CN2CCN(Cc3ccccc3)CC2)c1O [PAC-1] + NC(=O)Nc1cc(-c2cccc(F)c2)sc1C(=O)N[C@H]1CCCNC1 [AZD7762] (partner 0.2 µM)
Method in brief: as §1

PAC-1 + Pemetrexed = compound: C=CCc1cccc(/C=N/NC(=O)CN2CCN(Cc3ccccc3)CC2)c1O [PAC-1] + Nc1nc2[nH]cc(CCc3ccc(C(=O)N[C@@H](CCC(=O)O)C(=O)O)cc3)c2c(=O)[nH]1 [Pemetrexed] (partner 0.2 µM)
Method in brief: as §1

Row | Cell Line | relative viability (PAC-1 + Foretinib; first compound 0.02 µM) | relative viability (PAC-1 + Foretinib; first compound 0.06325 µM) | relative viability (PAC-1 + Foretinib; first compound 0.2 µM) | relative viability (PAC-1 + Foretinib; first compound 2 µM) | relative viability (PAC-1 + OSI-027; first compound 0.02 µM) | relative viability (PAC-1 + OSI-027; first compound 0.06325 µM) | relative viability (PAC-1 + OSI-027; first compound 0.2 µM) | relative viability (PAC-1 + OSI-027; first compound 2 µM) | relative viability (PAC-1 + Alpelisib; first compound 0.02 µM) | relative viability (PAC-1 + Alpelisib; first compound 0.06325 µM) | relative viability (PAC-1 + Alpelisib; first compound 0.2 µM) | relative viability (PAC-1 + Alpelisib; first compound 2 µM) | relative viability (PAC-1 + AZD7762; first compound 0.02 µM) | relative viability (PAC-1 + AZD7762; first compound 0.06325 µM) | relative viability (PAC-1 + AZD7762; first compound 0.2 µM) | relative viability (PAC-1 + AZD7762; first compound 2 µM) | relative viability (PAC-1 + Pemetrexed; first compound 0.02 µM) | relative viability (PAC-1 + Pemetrexed; first compound 0.06325 µM) | relative viability (PAC-1 + Pemetrexed; first compound 0.2 µM) | relative viability (PAC-1 + Pemetrexed; first compound 2 µM)
1 | HCC-78 | 0.522 | 0.591 | 0.634 | 0.589 | 0.336 | 0.335 | 0.376 | 0.396 | 0.308 | 0.373 | 0.368 | 0.303 | 0.676 | 0.558 | 0.596 | 0.573 | 0.915 | 0.904 | 0.85 | 0.928
2 | HCC-366 | 0.903 | 0.925 | 0.899 | 0.989 | 0.946 | 0.863 | 0.894 | 1.26 | 0.409 | 0.52 | 0.335 | 0.437 | 0.265 | 0.309 | 0.251 | 0.312 | 0.176 | 0.162 | 0.159 | 0.164
3 | IA-LM | 1.17 | 1.19 | 1.11 | 1.17 | – | – | – | – | 0.955 | 0.613 | 0.619 | 0.832 | – | – | – | – | – | – | – | –
4 | NCI-H520 | 0.818 | 0.769 | 0.682 | 0.723 | 0.299 | 0.275 | 0.265 | 0.259 | 0.704 | 0.979 | 0.927 | 0.925 | – | – | – | – | 0.723 | 0.686 | 0.639 | 0.58
5 | NCI-H522 | – | – | – | – | 0.673 | 0.695 | 0.737 | 0.691 | – | – | – | – | 0.886 | 0.69 | 0.799 | 0.891 | 0.945 | 0.902 | 1.08 | 0.955
6 | NCI-H661 | 1.05 | 0.963 | 0.967 | 0.957 | 0.631 | 0.747 | 0.785 | 0.577 | 0.581 | 0.56 | 0.671 | 0.687 | – | – | – | – | 0.906 | 0.877 | 0.88 | 0.882
7 | NCI-H727 | 0.811 | 1.02 | 0.937 | 0.881 | 0.641 | 0.689 | 0.619 | 0.622 | 0.646 | 0.648 | 0.527 | 0.561 | 0.547 | 0.615 | 0.671 | 0.711 | – | – | – | –
8 | NCI-H1299 | 1.14 | 1.04 | 1.04 | 1.06 | – | – | – | – | 1.06 | 1 | 1.02 | 1.01 | – | – | – | – | – | – | – | –
9 | NCI-H1563 | 0.928 | 1 | 0.976 | 0.935 | 0.757 | 0.814 | 0.742 | 0.753 | 0.98 | 0.935 | 0.922 | 1.02 | – | – | – | – | 0.787 | 0.746 | 0.776 | 0.949
10 | NCI-H1623 | 0.86 | 0.851 | 0.961 | 0.868 | 0.455 | 0.446 | 0.442 | 0.448 | – | – | – | – | – | – | – | – | – | – | – | –
11 | NCI-H1648 | – | – | – | – | 0.239 | 0.264 | 0.27 | 0.317 | – | – | – | – | 0.604 | 0.898 | 0.73 | 0.66 | 0.676 | 0.838 | 0.81 | 0.646
12 | NCI-H1650 | 0.892 | 1.31 | 1.22 | 0.732 | 0.569 | 0.614 | 0.55 | 0.612 | – | – | – | – | – | – | – | – | 0.365 | 0.387 | 0.321 | 0.387
